# According to article PMC10033419, “Blocking NS3–NS4B interaction inhibits dengue virus in non-human primates” (Nature, 2023):
# Key:
# DENV-1 G1 Djibouti = experiment: DENV genotype panel RT-qPCR, Vero E6; format: cell-based; conditions: Dengue virus, DENV1, Vero C1008; mean ± SD
# Protocol: (§1) A total of 20 DENV strains, representing the available genotypes within the four DENV serotypes, were used in the in vitro genotype panel, from which 19 viruses were described previously in ref. [3] and one additional virus, DENV-1/45AZ5 (ref. [54]), was added.
# (§2) A potential toxic effect on host cells was tested in parallel, while omitting virus infection, using the MTS/PMS method (Promega) for Vero cells, or by high-content imaging for C6/36 cells, as described previously. […] RT–qPCR data were analysed using the QuantStudio 12K Flex software (v.1.2.3) or SDS v.1.2 Applied Biosystems software. Inhibition values for antiviral molecules were plotted using KaleidaGraph plotting software (v.4.03, Synergy Software).
# DENV-1 G4 Indonesia = experiment: DENV genotype panel RT-qPCR, Vero E6; format: cell-based; conditions: Dengue virus, DENV1, Vero C1008
# Protocol: as §1, §2
# [1] = system: DENV-1 G5 France - Toulon; experiment: DENV genotype panel RT-qPCR, Vero E6; format: cell-based; conditions: Dengue virus, DENV1, Vero C1008
# Protocol: as §1, §2
# DENV-2 American Trinidad = experiment: DENV genotype panel RT-qPCR, Vero E6; format: cell-based; conditions: Dengue virus, DENV2, Vero C1008
# Protocol: as §1, §2
# DENV-2 Sylvatic Malaysia = experiment: DENV genotype panel RT-qPCR, Vero E6; format: cell-based; conditions: Dengue virus, DENV2, Vero C1008
# Protocol: as §1, §2
# DENV-3 G1 Malaysia = experiment: DENV genotype panel RT-qPCR, Vero E6; format: cell-based; conditions: Dengue virus, DENV3, Vero C1008
# Protocol: as §1, §2
# DENV-3 G2 Thailand = experiment: DENV genotype panel RT-qPCR, Vero E6; format: cell-based; conditions: Dengue virus, DENV3, Vero C1008
# Protocol: as §1, §2
# DENV-3 G3 Bolivia = experiment: DENV genotype panel RT-qPCR, Vero E6; format: cell-based; conditions: Dengue virus, DENV3, Vero C1008
# Protocol: as §1, §2
# DENV-4 G2a Malaysia = experiment: DENV genotype panel RT-qPCR, Vero E6; format: cell-based; conditions: Dengue virus, DENV4, Vero C1008
# Protocol: as §1, §2
# DENV-4 G2b Brazil = experiment: DENV genotype panel RT-qPCR, Vero E6; format: cell-based; conditions: Dengue virus, DENV4, Vero C1008
# Protocol: as §1, §2
# DENV-4 G3 Thailand = experiment: DENV genotype panel RT-qPCR, Vero E6; format: cell-based; conditions: Dengue virus, DENV4, Vero C1008
# Protocol: as §1, §2
# DENV-4 Sylvatic Malaysia = experiment: DENV genotype panel RT-qPCR, Vero E6; format: cell-based; conditions: Dengue virus, DENV4, Vero C1008
# Protocol: as §1, §2
# DENV-2 RL strain = experiment: Survival study, lethal DENV challenge with 4G2 antibody; format: in vivo, AG129 mice
smiles,measurement,setting,value
COc1cc(N[C@H](C(=O)c2c[nH]c3ccc(OC(F)(F)F)cc23)c2ccc(Cl)cc2OC)cc(S(C)(=O)=O)c1 [JNJ-1802],EC50,DENV-1 G1 Djibouti,0.207 ± 0.056 nM
same,EC90,DENV-1 G1 Djibouti,0.83 ± 0.37 nM
same,EC90,DENV-1 G4 Indonesia,0.8 ± 0.31 nM
same,EC50,DENV-1 G4 Indonesia; two of four values below threshold,< 0.19 nM
same,EC90,[1],1.02 ± 0.68 nM
same,EC50,[1]; one of three values below threshold,< 0.23 nM
same,EC50,DENV-2 American Trinidad,0.063 ± 0.081 nM
same,EC90,DENV-2 American Trinidad,0.162 ± 0.083 nM
same,EC50,DENV-2 Sylvatic Malaysia,0.0634 ± 0.0022 nM
same,EC90,DENV-2 Sylvatic Malaysia,0.265 ± 0.029 nM
same,EC50,DENV-3 G1 Malaysia,1.28 ± 0.46 nM
same,EC90,DENV-3 G1 Malaysia,3.6 ± 1.9 nM
same,EC50,DENV-3 G2 Thailand,1.68 ± 0.24 nM
same,EC90,DENV-3 G2 Thailand,5.8 ± 3 nM
same,EC50,DENV-3 G3 Bolivia,0.9 ± 1.1 nM
same,EC90,DENV-3 G3 Bolivia,6.71 ± 0.66 nM
same,EC50,DENV-4 G2a Malaysia,0.82 ± 0.71 nM
same,EC90,DENV-4 G2a Malaysia,2.1 ± 1.7 nM
same,EC50,DENV-4 G2b Brazil,0.521 ± 0.08 nM
same,EC90,DENV-4 G2b Brazil,1.54 ± 0.15 nM
same,EC50,DENV-4 G3 Thailand,45 nM
same,EC90,DENV-4 G3 Thailand,46 ± 12 nM
same,EC50,DENV-4 Sylvatic Malaysia,0.66 ± 0.42 nM
same,EC90,DENV-4 Sylvatic Malaysia,1.6 ± 1.1 nM
same,survival,"DENV-2 RL strain; 0.6–20 mg per kg per day, b.i.d., vehicle 0%",≥ 80%
same,% Survival,"DENV-2 RL strain; 802R_0.3, BID, d p.i. 0",100%
same,% Survival,"DENV-2 RL strain; 802R_0.3, BID, d p.i. 1",100%
same,% Survival,"DENV-2 RL strain; 802R_0.3, BID, d p.i. 4",100%
same,% Survival,"DENV-2 RL strain; 802R_0.3, BID, d p.i. 5",100%
same,% Survival,"DENV-2 RL strain; 802R_0.3, BID, d p.i. 6",100%
same,% Survival,"DENV-2 RL strain; 802R_0.3, BID, d p.i. 7",100%
same,% Survival,"DENV-2 RL strain; 802R_0.3, BID, d p.i. 8",100%
same,% Survival,"DENV-2 RL strain; 802R_0.3, BID, d p.i. 9",100%
same,% Survival,"DENV-2 RL strain; 802R_0.3, BID, d p.i. 10",100%
same,% Survival,"DENV-2 RL strain; 802R_0.3, BID, d p.i. 11",100%
same,% Survival,"DENV-2 RL strain; 802R_0.3, BID, d p.i. 12",100%
same,% Survival,"DENV-2 RL strain; 802R_0.3, BID, d p.i. 13",100%
same,% Survival,"DENV-2 RL strain; 802R_0.3, BID, d p.i. 14",100%
same,% Survival,"DENV-2 RL strain; 802R_0.3, BID, d p.i. 15",100%
same,% Survival,"DENV-2 RL strain; 802R_0.3, BID, d p.i. 16",100%
same,% Survival,"DENV-2 RL strain; 802R_0.3, BID, d p.i. 17",90%
same,% Survival,"DENV-2 RL strain; 802R_0.3, BID, d p.i. 18",90%
same,% Survival,"DENV-2 RL strain; 802R_0.3, BID, d p.i. 19",90%
same,% Survival,"DENV-2 RL strain; 802R_0.3, BID, d p.i. 20",90%
same,% Survival,"DENV-2 RL strain; 802R_0.3, BID, d p.i. 21",90%
same,% Survival,"DENV-2 RL strain; 802R_0.3, BID, d p.i. 22",90%
same,% Survival,"DENV-2 RL strain; 802R_0.3, BID, d p.i. 23",90%
same,% Survival,"DENV-2 RL strain; 802R_0.3, BID, d p.i. 24",90%
same,% Survival,"DENV-2 RL strain; 802R_0.3, BID, d p.i. 25 = end of study",90%
same,% Survival,"DENV-2 RL strain; 802R_1, BID, d p.i. 0",100%
same,% Survival,"DENV-2 RL strain; 802R_1, BID, d p.i. 1",100%
same,% Survival,"DENV-2 RL strain; 802R_1, BID, d p.i. 2",100%
same,% Survival,"DENV-2 RL strain; 802R_1, BID, d p.i. 4",100%
same,% Survival,"DENV-2 RL strain; 802R_1, BID, d p.i. 5",100%
same,% Survival,"DENV-2 RL strain; 802R_1, BID, d p.i. 6",100%
same,% Survival,"DENV-2 RL strain; 802R_1, BID, d p.i. 7",100%
same,% Survival,"DENV-2 RL strain; 802R_1, BID, d p.i. 8",100%
same,% Survival,"DENV-2 RL strain; 802R_1, BID, d p.i. 9",100%
same,% Survival,"DENV-2 RL strain; 802R_1, BID, d p.i. 10",100%
same,% Survival,"DENV-2 RL strain; 802R_1, BID, d p.i. 11",100%
same,% Survival,"DENV-2 RL strain; 802R_1, BID, d p.i. 12",100%
same,% Survival,"DENV-2 RL strain; 802R_1, BID, d p.i. 13",100%
